The test system of one series is HIV-1 NL4-3 DTV. The following applies: read-out: IC50 DTV, P4-CCR5 cells, peptide 2 h before infection, readout three days after infection. The procedure, abridged: (§1)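 P4-CCR5 cells (CD4, CCR5, CXCR4, HIV-1 promoter-driven β-galactosidase) pretreated 2 h with peptide, then infected with virus containing 1 ng p24 antigen and incubated overnight. Cells washed and cultured without peptide; three days post-infection infectivity read by chemiluminescent β-galactosidase assay, in quintuplicate.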

The next series deals with X4-tropic HIV-1 NL4-3. The note with it: read-out: IC50 NL4-3; P4-CCR5 cells, HIV-1 NL4-3, peptide 2 h before infection, readout three days after infection. Put shortly:
as §1

The test system of series [1] is human monocytic THP-1 cells. Briefly: Cytotoxicity on human cells, WST-1 assay. The note with it: 24 hours, 30, 100, 300 and 1000 μg/mL. The method, then: The cytotoxicity of peptides of the invention was tested by evaluating the viability of human monocytic THP-1 cells. Cytotoxic effects of the peptides were tested by their influence on metabolic activity by means of the WST-1 assay (Roche Diagnostics, Germany). THP-1 cells were incubated with test peptides in a 96-well plate (approx. 25,000 cells per well) for 24 hours in RPMI-1640 medium containing 25 mM L-glutamine and 10 volume % fetal calf serum at 37° C. in an atmosphere with 5 volume % CO2. Ten μl of a WST-1 solution was added to each cavity, and incubation of THP-1 cells was allowed for 2 further hours at corresponding conditions. Metabolically active THP-1 cells reduce WST-1, a light red tetrazolium salt, yielding a soluble yellow formazan salt. The amount of reduced WST-1 correlates directly to the number of living cells, and is measured photometrically at a wavelength of λ=450 nm using a microtiter plate reader (reference wavelength is 630 nm). As a positive control, the known cytotoxic substance cycloheximide was used at a concentration of 50 μg/ml; the cytotoxicity of cycloheximide was set to 100%. […] The cytotoxicity of VIRIP peptides was calculated using the formula Viability [%]=[A450 nm (peptide)−A450 nm (cycloheximide)]/[A450 nm (negative control)−A450 nm (cycloheximide)]*100 and was correlated to the averaged viability of untreated THP-1 cells. […]
For orientation: Tetrazolium assays rely on reduction of a dye to a coloured formazan, in cell work by metabolically active cells.

Series [2] has as its target T1, synthetic fusion peptide of HIV gp41 (Human immunodeficiency virus type 1 group M subtype B, UniProt P04578).
T1 construct: The fusion peptide is the very amino-terminal part of gp41 consisting of about 30 amino acid residues
Briefly: Inhibition of fusion peptide-induced hemolysis. The series is classed as cell-based. The note with it: peptides at 1000, 100 and 10 μM preincubated with 100 μM fusion peptide, human erythrocytes, hemoglobin release. On the procedure: The synthetic fusion peptide of HIV gp41 causes concentration-dependent hemolysis which can be measured by hemoglobin released by erythrocytes.
Peptides and any other substance binding to the fusion peptide impair its potency to lyse erythrocytes by changing its structural properties. The inhibition of fusion peptide induced hemolysis was tested as follows: Blood from healthy donors was collected in citrate monovettes and the erythrocytes were extracted by a standard centrifugation and washing protocol known to the skilled person. The final erythrocyte-containing pellett was diluted 1:100 with phosphate-saline buffer. To the peptides (10, 100, or 1000 equivalents) 20 μl of a 100 μM fusion peptide solution in 10% DMSO were added and the solution was diluted to 100 μl with phosphate-buffered saline. A 60 min incubation at 37° C. was carried out. After the preincubation the samples were transferred to 96-well plates and 100 μl of the erythrocyte suspension were added and incubated for 60 min at 37° C. […] The 96-well plate is centrifuged 5 min at 2800 rpm and of the supernatant fluid 150 μl were transferred to a flat-bottom microtiter plate, and the absorbance was measured at 450 nm. The percentage hemolysis was calculated by: [(A450 of the peptide treated sample—A450 of buffer treated sample)/(A450 of Tween-20 treated sample—A450 of buffer treated sample)]×100%.

Molecules are shown by their SMILES. Entries after “also recorded” stand apart in the source; their conditions may differ. Positions of bridges follow the written chain, without caps; N, C: chain ends. Residues, ends and D or L forms follow the SMILES beside them.

T1 sequence (P04578 512-532): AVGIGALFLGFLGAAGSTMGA

Turning to `CC[C@H](C)[C@H](NC(=O)[C@H](C)NC(=O)[C@H](CCC(=O)O)NC(=O)[C@@H](N)CC(C)C)C(=O)N1CCC[C@H]1C(=O)N[C@H]1CSSC[C@@H](C(=O)N[C@H](C(=O)N[C@@H](Cc2ccccc2)C(=O)N[C@@H](Cc2ccccc2)C(=O)N[C@@H](CC(N)=O)C(=O)N[C@@H](CCCCN)C(=O)N2CCC[C@H]2C(=O)N[C@@H](Cc2ccccc2)C(=O)N[C@H](C(=O)N[C@@H](Cc2ccccc2)C(=O)O)C(C)C)C(C)C)NC(=O)[C@@H]2CCCN2C(=O)[C@@H]2CCCN2C(=O)[C@H]([C@@H](C)CC)NC(=O)[C@H](CO)NC1=O` [VIR-164] (H-LEAIPCSIPPCVFFNKPFVF-OH; disulfide 6-11), the IC50 in the series with HIV-1 NL4-3 DTV was 370 nM; in the series with X4-tropic HIV-1 NL4-3 it was 340 nM. For the same compound, in series [1], the “cytotoxic effect on THP-1 cells” value is on record as “free of any cytotoxic effect; also recorded: did not exhibit a cytotoxic effect”. Besides, the “inhibition of fusion peptide-induced hemolysis” value in series [2] is “Dose dependent inhibition”.

Usually IC50 stands for the concentration needed to halve the response being measured.

Values taken from patent US7655629B2, “Peptides and their use for the treatment of HIV infections” (priority 2002, dated 2010).
